Data: patent publication US20030187059A1, “Methods and compounds useful in inhibiting oxidative and/or free radical damage and in the treatment and prevention of disease” (priority 2002, published 2003)

Tested on: rat liver microsomes
Assay: Inhibition of ferrous ion-stimulated formation of maliondialdehyde (lipid peroxidation) in rat liver microsomes
Format: biochemical
Conditions: ferrous sulfate 1 mM, 37° C. for 1 hour, test compound in DMSO, read-out: IC50, inhibition of production of MDA (as measured by the MDA-TBA adduct)
Protocol: The in vitro antioxidant activity of Compound MH-1 was evaluated by measuring its inhibitory effect on the ferrous ion-stimulated formation of maliondialdehyde (“MDA”), an end product of lipid peroxidation, in rat liver microsomes. The antioxidant activity of Compound MH-1 was compared with the in vitro antioxidant activity of α-tocopherol, a known antioxidant. A modified procedure originally described in Bernheim et al., “The Reaction Between Thiobarbituric Acid and the Oxidation Products of Certain Lipids,” J. Biol. Chem., 174:257-264 (1948) and Wills, “Lipid Peroxide Formation in Microsomes,” Biochem. J., 113:325-332 (1969), which are hereby incorporated by reference, was used to carry out the assay.
Freshly harvested rat livers (100 mg/ml) were homogenized in Tris-KCl buffer (0.05M, pH 7.4). The microsomal fraction was isolated by differential centrifugation (40,000 rpm; 106,000 g) and resuspended in Tris-KCl (100 mg/ml, initial concentration). The microsomal suspension was incubated with or without the test compound (Compound MH-1 in DMSO, 0.0-0.5mM or α-tocopherol in dimethylsulfoxide, 0.0-0.6 mM) at 37° C. for 3 minutes. […] Maliondialdeyde-TBA adduct concentrations in the butanol extract were measured by fluorescence spectroscopy (emission 553 nm, excitation 532 nm). […]

| IC50 [µM] | Compound |
| --- | --- |
| 266 | Cc1c(C)c2c(c(C)c1OC(=O)CCCC[C@@H]1CCSS1)CC[C@@](C)(CC[C@H](C)CCC[C@H](C)CCCC(C)C)O2 [Compound MH-1] |
| 307 | Cc1c(C)c2c(c(C)c1O)CC[C@@](C)(CCC[C@H](C)CCC[C@H](C)CCCC(C)C)O2 [α-tocopherol] |
